Measurements published in ChEMBL document CHEMBL3885861, “Open TG-GATES”.

Species: Rattus norvegicus
Experiment: Open TG-GATES - Regimen: Single
Type: toxicity, organism-based, Sprague-Dawley
Parameters: regimen Single, gender Male, age 6 weeks
Conditions: in vivo, po, 0 mg/kg, route gavage, dose level Control; for APTT / Bas / Eos / Fbg / Hb / Ht / Lym / MCH / MCHC / MCV / Mono / Neu / PT / Plat / RBC / Ret / WBC: tissue Blood; for KIDNEY_L / KIDNEY_R / KIDNEY_TOTAL: tissue Kidney; for LIVER: tissue Liver; for A/G / ALP / ALT / AST / BUN / CRE / Ca / Cl / DBIL / GLC / IP / K / LDH / Na / PL / RALB / TBIL / TC / TG / TP / gamma-GTP: tissue Plasma

For `CC1=C(/C=C/C(C)=C/C=C/C(C)=C/CO)C(C)(C)CCC1` [RETINOL], the TERMINAL_BW (3 h) was 195.7 g, the APTT (3 h) was 22 s and the Bas (3 h) was 0%. For the same compound, the Eos (3 h) was 0.8%, the Fbg (3 h) was 294.8 mg/dL and the Hb (3 h) was 13.3 g/dL. For the same compound, the Ht (3 h) was 38.7%, the Lym (3 h) was 79.4% and the MCH (3 h) was 21.4 pg. For the same compound, the MCHC (3 h) was 34.5%, the MCV (3 h) was 62.2 fL and the Mono (3 h) was 2%. It also gave a Neu (3 h) of 16.8%, a PT (3 h) of 15.8 s and a Plat (3 h) of 108.5 x10_4/uL. The RBC (3 h) was 621.4 x10_4/ul, the Ret (3 h) was 8.9% and the WBC (3 h) was 97.5 x10_2/uL. The KIDNEY_L (3 h) was 0.9 g, the KIDNEY_R (3 h) was 0.9 g and the KIDNEY_TOTAL (3 h) was 1.8 g. For the same compound, the LIVER (3 h) was 9 g, the A/G (3 h) was 1.3 and the ALP (3 h) was 1760.6 IU/L. The ALT (3 h) was 48 IU/L, the AST (3 h) was 83.6 IU/L and the BUN (3 h) was 12.8 mg/dL. It also gave a CRE (3 h) of 0.2 mg/dL, a Ca (3 h) of 10.6 mg/dL and a Cl (3 h) of 107.6 meq/L. It also gave a DBIL (3 h) of 0 mg/dL, a GLC (3 h) of 181 mg/dL and an IP (3 h) of 8.4 mg/dL. It also gave a K (3 h) of 3.8 meq/L, an LDH (3 h) of 265.2 IU/L and a Na (3 h) of 142.2 meq/L. It also gave a PL (3 h) of 148.6 mg/dL, an RALB (3 h) of 3.2 g/dL and a TBIL (3 h) of 0.012 mg/dL. The TC (3 h) was 77 mg/dL, the TG (3 h) was 58.6 mg/dL and the TP (3 h) was 5.6 g/dL. For the same compound, the gamma-GTP (3 h) was 2.8 IU/L, the TERMINAL_BW (6 h) was 199.1 g and the APTT (6 h) was 21.6 s. It also gave a Bas (6 h) of 0%, an Eos (6 h) of 0.6% and a Fbg (6 h) of 309.6 mg/dL. It also gave a Hb (6 h) of 13.5 g/dL, a Ht (6 h) of 38.8% and a Lym (6 h) of 77%. It also gave an MCH (6 h) of 21.6 pg, an MCHC (6 h) of 34.9% and an MCV (6 h) of 61.8 fL. It also gave a Mono (6 h) of 3%, a Neu (6 h) of 18.8% and a PT (6 h) of 15.7 s. For the same compound, the Plat (6 h) was 114.9 x10_4/uL, the RBC (6 h) was 628.2 x10_4/ul and the Ret (6 h) was 8.5%. The WBC (6 h) was 113.2 x10_2/uL, the KIDNEY_L (6 h) was 1 g and the KIDNEY_R (6 h) was 1 g. It also gave a KIDNEY_TOTAL (6 h) of 1.9 g, an LIVER (6 h) of 9.2 g and an A/G (6 h) of 1.3. For the same compound, the ALP (6 h) was 1700 IU/L, the ALT (6 h) was 36.8 IU/L and the AST (6 h) was 67.8 IU/L. The BUN (6 h) was 10.6 mg/dL, the CRE (6 h) was 0.1 mg/dL and the Ca (6 h) was 10.9 mg/dL. The Cl (6 h) was 106.4 meq/L, the DBIL (6 h) was 0.014 mg/dL and the GLC (6 h) was 181.4 mg/dL. For the same compound, the IP (6 h) was 9.9 mg/dL, the K (6 h) was 4.5 meq/L and the LDH (6 h) was 223.6 IU/L. The Na (6 h) was 142 meq/L, the PL (6 h) was 152 mg/dL and the RALB (6 h) was 3.2 g/dL. For the same compound, the TBIL (6 h) was 0.022 mg/dL, the TC (6 h) was 80.6 mg/dL and the TG (6 h) was 79.6 mg/dL. The TP (6 h) was 5.5 g/dL, the gamma-GTP (6 h) was 1.2 IU/L and the TERMINAL_BW (9 h) was 198.5 g. The APTT (9 h) was 21.2 s, the Bas (9 h) was 0% and the Eos (9 h) was 0.6%. For the same compound, the Fbg (9 h) was 303.2 mg/dL, the Hb (9 h) was 13.1 g/dL and the Ht (9 h) was 38.3%. It also gave a Lym (9 h) of 81.4%, an MCH (9 h) of 21.6 pg and an MCHC (9 h) of 34.3%. It also gave an MCV (9 h) of 63 fL, a Mono (9 h) of 2.6% and a Neu (9 h) of 15%. The PT (9 h) was 15.8 s, the Plat (9 h) was 122.4 x10_4/uL and the RBC (9 h) was 608.2 x10_4/ul. It also gave a Ret (9 h) of 7.9%, a WBC (9 h) of 88.4 x10_2/uL and a KIDNEY_L (9 h) of 0.9 g. It also gave a KIDNEY_R (9 h) of 0.9 g, a KIDNEY_TOTAL (9 h) of 1.9 g and an LIVER (9 h) of 8.3 g. For the same compound, the A/G (9 h) was 1.2, the ALP (9 h) was 1691.8 IU/L and the ALT (9 h) was 33.8 IU/L. It also gave an AST (9 h) of 72.2 IU/L, a BUN (9 h) of 10 mg/dL and a CRE (9 h) of 0.1 mg/dL. The Ca (9 h) was 10.8 mg/dL, the Cl (9 h) was 107.8 meq/L and the DBIL (9 h) was 0 mg/dL. The GLC (9 h) was 183 mg/dL, the IP (9 h) was 10.8 mg/dL and the K (9 h) was 4.4 meq/L. The LDH (9 h) was 302 IU/L, the Na (9 h) was 142 meq/L and the PL (9 h) was 131.2 mg/dL. The RALB (9 h) was 2.9 g/dL, the TBIL (9 h) was 0.018 mg/dL and the TC (9 h) was 73.4 mg/dL. It also gave a TG (9 h) of 52.2 mg/dL, a TP (9 h) of 5.4 g/dL and a gamma-GTP (9 h) of 4.4 IU/L. The TERMINAL_BW (24 h) was 205.1 g, the APTT (24 h) was 20.8 s and the Bas (24 h) was 0%. For the same compound, the Eos (24 h) was 0.8%, the Fbg (24 h) was 294 mg/dL and the Hb (24 h) was 13.1 g/dL. The Ht (24 h) was 37.7%, the Lym (24 h) was 79.4% and the MCH (24 h) was 21.9 pg. For the same compound, the MCHC (24 h) was 34.8%, the MCV (24 h) was 63.2 fL and the Mono (24 h) was 2.6%. For the same compound, the Neu (24 h) was 16.6%, the PT (24 h) was 16.1 s and the Plat (24 h) was 119.1 x10_4/uL. For the same compound, the RBC (24 h) was 598.2 x10_4/ul, the Ret (24 h) was 7.8% and the WBC (24 h) was 85.8 x10_2/uL. For the same compound, the KIDNEY_L (24 h) was 0.9 g, the KIDNEY_R (24 h) was 0.9 g and the KIDNEY_TOTAL (24 h) was 1.9 g. The LIVER (24 h) was 9.7 g, the A/G (24 h) was 1.3 and the ALP (24 h) was 1692.4 IU/L. It also gave an ALT (24 h) of 41.8 IU/L, an AST (24 h) of 71.8 IU/L and a BUN (24 h) of 17.6 mg/dL. It also gave a CRE (24 h) of 0.2 mg/dL, a Ca (24 h) of 10.7 mg/dL and a Cl (24 h) of 105.6 meq/L. The DBIL (24 h) was 0.006 mg/dL, the GLC (24 h) was 181.6 mg/dL and the IP (24 h) was 6.4 mg/dL. It also gave a K (24 h) of 4.3 meq/L, an LDH (24 h) of 245.8 IU/L and a Na (24 h) of 141.2 meq/L. For the same compound, the PL (24 h) was 154.2 mg/dL, the RALB (24 h) was 3.1 g/dL and the TBIL (24 h) was 0.016 mg/dL. For the same compound, the TC (24 h) was 79.6 mg/dL, the TG (24 h) was 79.2 mg/dL and the TP (24 h) was 5.5 g/dL. The gamma-GTP (24 h) was 1.2 IU/L.
